# According to patent US5624917A, “Method of inhibiting squalene synthetase” (Takeda Chemical Industries, Ltd., priority 1991, dated 1997):
# Key:
# cholesterol biosynthesis = experiment: Cholesterol biosynthesis inhibitory activity: cholesterol synthesis from [2-14C] acetic acid in rat liver slices; format: cell-based; conditions: for effect on cholesterol synthesis from [2-14C] acetic acid (in words): 20 μM; for activity at 20 µM: 37° C., 2 hours, No addition = 100 ± 0
# Description: (§1) Squalene synthetase inhibitory activity and cholesterol biosynthesis inhibitory activity of the compounds used in the present invention were determined by the following method.
# Determination of cholesterol biosynthesis Inhibitory activity
# The liver was excised from Sprague-Dawley rat (6 weeks old, male) under full feeding and sliced into 500 μm in thickness. The slices of liver (150-200 mg) and KHB buffer solution (1 ml) containing 0.5 μCi [2-^14 C] acetic acid and various concentrations of test compounds were incubated at 37° C. for 2 hours. Cholesterol was extracted from the reaction mixture. The amount of cholesterol synthesized from the labeled acetic acid was measured, and the inhibitory ratio was calculated in comparison with the synthesized amount in the case of no addition of the test compounds.
# The effect of Compound No. 22 (Example 39 described in Japanese Patent Application No. 3-151484) (added in 20 μM), 67, 74 and 75 on cholesterol synthesis from [2-^14 C] acetic acid in assay using liver slices of rats was observed.
# squalene synthetase [1] = molecular target: T1, squalene synthetase (Rattus norvegicus, UniProt Q02769); experiment: Squalene synthetase inhibitory activity, rat enzyme (rat liver microsome fraction); format: biochemical; conditions: 5 μM [1-3H]farnesylpyrophosphoric acid, pH 7.4, 37° C., 45 minutes, read-out: IC50, squalene synthetase inhibitory activity, Rat enzyme
# T1 construct: from tissue; host or cells: liver of male SD rats (microsome fraction)
# T1 sequence (Q02769 1-416): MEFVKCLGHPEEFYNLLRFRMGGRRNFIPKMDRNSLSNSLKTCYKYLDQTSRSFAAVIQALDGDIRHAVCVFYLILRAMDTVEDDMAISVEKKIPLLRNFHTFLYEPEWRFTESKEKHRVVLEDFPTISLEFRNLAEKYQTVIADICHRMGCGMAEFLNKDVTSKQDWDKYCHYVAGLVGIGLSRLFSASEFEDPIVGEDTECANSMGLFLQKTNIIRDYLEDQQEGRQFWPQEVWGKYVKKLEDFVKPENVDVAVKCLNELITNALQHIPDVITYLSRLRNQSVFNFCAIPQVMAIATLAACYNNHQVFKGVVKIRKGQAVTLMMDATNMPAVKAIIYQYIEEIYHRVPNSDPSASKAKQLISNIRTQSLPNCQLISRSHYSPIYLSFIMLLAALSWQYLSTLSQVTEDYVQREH
# Description: as §1
# (§2) Determination of squalene synthetase inhibitory activity
# (§3) The squalene synthetase inhibitory activity was determined as follows by using the enzyme solutions shown in Experiments 1 and 2 below.
# (§4) Each enzyme solution (Protein: 0.8 μg) prepared in Experiments 1 and 2 was added to a solution (total amount: 50 μl) containing 5 μM[1-^3 H]farnesylpyrophosphoric acid (Specific activity 25 μCi/μmole), 1 mM NADPH, 5 mM MgCl2, 6 mM glutathione, 100 mM potassium phosphate buffer (pH 7.4) and a drug to be tested (which was added as a solution thereof in water or DMSO). The mixture was allowed to react at 37° C. for 45 minutes. A mixture (150 μl) of chloroform and methanol (1:2) was added to stop the reaction. Then, chloroform (50 μl) and 3N sodium hydroxide solution (50 μl) were added. The chloroform layer (under layer, 50 μl) containing the reaction products in which the major component was squalene was mixed with toluene liquid scintillator (3 ml). The radioactivity was measured with a liquid scintillation counter.
# (§5) The squalene synthetase inhibitory activity is indicated by the concentration (IC50, molarity(M)) which inhibits the radioactivity incorporated into the chloroform layer by 50%.
# Preparation of rat enzyme
# SD-Male rats (6 weeks old) were bled to death followed by removal of liver. The liver (ca. 10 g) was washed with ice-cooled physiological saline, homogenized in an ice-cooled buffer solution (15 ml) [100 mM potassium phosphate (pH 7.4), 15 mM nicotinamide, 2 mM MgCl2 ] and centrifuged at 10,000×g for 20 minutes (4° C.). The resulting supernatant was further centrifuged at 105,000×g for 90 minutes (4° C.). Then, the deposit was suspended in an ice-cooled 100 mM potassium phosphate buffer solution (pH 7.4) and centrifuged at 105,000×g for 90 minutes (4° C.) again. The deposit (microsome fraction) thus obtained was suspended in an ice-cooled 100 mM potassium phosphate buffer solution (pH 7.4) so that the protein concentration became about 40 mg/ml (measured with BCA Protein Assay Kit (Pias)), and the suspension was used as the enzyme solution.
# squalene synthetase [2] = molecular target: T2, squalene synthetase (Homo sapiens, UniProt P37268); experiment: Squalene synthetase inhibitory activity, human enzyme (HepG2 microsome fraction); format: biochemical; conditions: human hepatoma HepG2 microsome fraction; 5 μM [1-3H]farnesylpyrophosphoric acid, pH 7.4, 37° C., 45 minutes; read-out: IC50, squalene synthetase inhibitory activity, Human enzyme
# T2 construct: From the resulting sonicate, microsome fraction was obtained according to the same manner as that described in Experiment 1; endogenous in cells; host or cells: HepG2 human hepatoma cells (microsome fraction)
# T2 sequence (P37268 1-417): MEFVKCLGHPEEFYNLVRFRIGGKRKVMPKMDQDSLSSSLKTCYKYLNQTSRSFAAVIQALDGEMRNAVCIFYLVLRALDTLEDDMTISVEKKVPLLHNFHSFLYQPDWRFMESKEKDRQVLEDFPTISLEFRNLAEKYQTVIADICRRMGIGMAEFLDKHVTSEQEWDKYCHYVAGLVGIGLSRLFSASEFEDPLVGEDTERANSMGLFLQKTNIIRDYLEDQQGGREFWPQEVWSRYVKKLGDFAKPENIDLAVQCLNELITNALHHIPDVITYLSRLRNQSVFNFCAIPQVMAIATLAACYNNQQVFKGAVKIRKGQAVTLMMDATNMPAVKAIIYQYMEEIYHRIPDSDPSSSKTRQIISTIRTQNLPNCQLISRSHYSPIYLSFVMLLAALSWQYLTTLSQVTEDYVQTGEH
# Description: as §1, §2, §3, §4, §5
# Preparation of human enzyme
# Cultivation was carried out on Dulbecco modified Eagle medium containing 10% bovine fetal serum in the presence of 5% CO2 at 37° C. The human hepatoma cells HepG2 (ca. 1×10^9 cells) were suspended in an ice-cooled buffer solution (10 ml) [100 mM potassium phosphate (pH 7.4), 30 mM nicotinamide, 2.5 mM MgCl2 ], and the cells were crushed by ultrasonication (30 seconds, twice). From the resulting sonicate, microsome fraction was obtained according to the same manner as that described in Experiment 1. This microsome fraction was suspended in an ice-cooled 100 mM potassium phosphate buffer solution (pH 7.4) so that the protein concentration became about 4 mg/ml, and this suspension was used as the enzyme liquid.
Compound,IC50 (squalene synthetase [1]) [nM],IC50 (squalene synthetase [2]) [nM],effect on cholesterol synthesis from [2-14C] acetic acid (in words) (cholesterol biosynthesis),activity at 20 µM (cholesterol biosynthesis) [%]
O=P(O)(O)C(NCCCCCCSc1ccccc1)P(=O)(O)O [compound 22],–,–,significant inhibition of cholesterol biosynthesis,52.9 ± 10
O=P(O)(O)C(NCCCCCCSc1nccs1)P(=O)(O)O [compound 74],–,–,significant inhibition of cholesterol biosynthesis,35.8 ± 0.8
Cc1nnc(SCCCCCCNC(P(=O)(O)O)P(=O)(O)O)s1 [compound 75],–,–,significant inhibition of cholesterol biosynthesis,50 ± 7.9
"(E,E)-farnesylaminomethylenebisphosphonic acid diethyl ester disodium salt [Compound No. 112]",3300,8200,–,–

# Continued, in another order:
IC50 (squalene synthetase [1]) [nM],IC50 (squalene synthetase [2]) [nM],Compound,effect on cholesterol synthesis from [2-14C] acetic acid (in words) (cholesterol biosynthesis),activity at 20 µM (cholesterol biosynthesis) [%]
8.7,9.3,COc1ccc(CSCCCCCCNC(P(=O)(O)O)P(=O)(O)O)cc1 [compound 67],significant inhibition of cholesterol biosynthesis,43.4 ± 5
62,110,"CC(C)=CCC/C(C)=C/CC/C(C)=C/CC(P(=O)(O)O)P(=O)(O)O [compound 106, trisodium (E,E)-farnesylmethylenebisphosphonate]",–,–
